Data taken from patent publication US20250108023A1, “Products for Masking Bitterness” (The Third People's Hospital of Henan Province, priority 2023, published 2025).

Columns and labels:
[1] = Oral spray bitterness masking taste test by volunteers with Coptis chinensis standard bitter solution; assay type: in vivo, healthy volunteers; set-up: key to bitterness value after drug: bitterness value 0.5–5.5; 1 = none, 5 = unbearable; key to Reduction of bitterness: drop in bitterness value (0.5–5.5 scale) from initial; settings: for Reduction of bitterness / Reduction range / Duration > / inhibition in vivo at 0.2 %: 0.2% solution in 60% ethanol as oral spray; for Reduction of bitterness: original bitterness average 4.0, average of 31 cases; for Reduction range / inhibition in vivo at 0.2 %: relative to original bitterness 4.0; for Duration >: retention time until bitterness rises; for bitterness value after drug: initial bitterness 4.0, 16 cases; for inhibition in vivo at 0.2 %: Homo sapiens, read-out: Reduction range
Protocol: Purpose of the experiment: it is to screen out compounds that take effect within 5 seconds, last for 30-120 seconds, and it is expected, by using such kind of compounds, the taste of the drug cannot be felt during the duration (30-120 seconds) when taking the drug.
Principle of the experiment: simulate the process of taking medicine and using the taste masking agents, first spray about 0.5 ml of oral spray on the throat (3 times), and after it takes effect quickly, taste 10 ml of bitter standard solution to screen drugs that can be used in advance and can mask the bitter taste.
• 1: Volunteer screening. The research team strictly screened the recruited volunteers and finally selected healthy volunteers as subjects. They signed informed consent forms before the experiment; • 2: Standard bitterness sample preparation. The bitterness of the samples was divided into five levels, and each level was assigned a certain bitterness value range; • 3: The sensory standard was corrected by the oral taste evaluation method, that is, the sensory standard was corrected by comparing the taste evaluation of the volunteers with the established bitterness value of the reference sample group. Specific steps: when the volunteers are doing the oral tasting test, the reference solutions of various concentrations are placed in the tasting cups, and the volunteers hold one of the solutions in their mouths, time it, and rinse their mouths by using the solution so that the bitter taste perception area at the root and sides of the tongue can fully feel the bitter taste of the drug. […] Then dilute all the selected taste masking drugs, prepare the solution, take 10 ml and put it into the spray bottle, spray it into the mouth 3 times, stay for 5 seconds, drink 10 ml of standard bitterness solution, feel and record the bitterness value, keep the standard bitterness solution in the mouth until the bitterness rises, and record the retention time. • 5: Quality control. […] Since the experimental objects are biological samples and there are individual differences between different subjects, there may be individual outliers in the experimental test data. The Grubbs test method was used to exclude outliers in the data, and then the experimental data were plotted in tables and curves for data analysis.
It is necessary to process the experimental data. Specifically, the Grubbs test method was used to perform a circular test and elimination of outliers on the data, and a bilateral test was used to eliminate outliers in the oral test. Considering the characteristics of biological samples, the detection level was selected as 0.1 and the elimination level was selected as 0.05 in this experiment.
The experimental medicinal material processing method mentioned in the above technical scheme is as follows: Preparation of bitter standard solution, use 10 g of Coptis chinensis powder, add 100 ml of pure water above 90 degrees, stir, let stand for 20 minutes, take the supernatant for use, determine the standard bitterness of 4.0 degrees by oral tasting, dilute 5 times, determine the standard bitterness of 2.0 degrees, dilute 2.0 degrees again 5 times, determine the standard bitterness of 0.5 degrees. Compare with the bitterness scoring table, (level 1 means “no bitterness or almost no bitterness”, the bitterness value is 0.5˜1.5; level 2 means “slightly bitter”, the bitterness value is 1.5˜2.5; level 3 means “bitter but acceptable”, the bitterness value is 2.5˜3.5; level 4 means “very bitter, but still tolerable”, the bitterness value is 3.5˜4.5; level 5 means “unbearable bitterness”, the bitterness value is 4.5˜5.5). Adjust the judgment and cognition of bitterness.
The standard bitterness solution used in this experiment to verify the experimental effect is a 4.0 degree bitterness solution of Coptis chinensis prepared according to the above method.

[2] = Broad-spectrum taste masking test on decoctions of extremely bitter Chinese herbal medicine slices; assay type: in vivo, healthy volunteers; set-up: key: reduction in bitterness degrees on a 5-degree graduation scale; settings: 0.1% taste masking agent in 40% ethanol
Protocol: According to the standard of decocting 100 ml of liquid from 10 g of dry Chinese herbal medicine slices (decoction method: use a stainless steel container, and keep for 20 minutes after boiling), from 300 commonly used Chinese herbal medicine slices, combined with the Chinese Pharmacopoeia, more than 20 Chinese herbal medicines with bitter or extremely bitter properties written in the pharmacopoeia were selected, including Bletilla striata, Cortex qin, Stephania tetrandra, Apricot kernel, Belamcanda chinensis, Angelica dahurica, Lotus seed heart, Toosendan fruit, Andrographis paniculata, Sophora flavescens, Coptis chinensis, Gentiana scabra, Forsythia suspensa, Sophora japonica, Phellodendron amurense, Scutellaria baicalensis, Platycodon grandiflorum, Notopterygium wilfordii, Saposhnikovia divaricata, Perilla frutescens, Zanthoxylum bungeana, Osmanthus fragrans, Sophora flavescens, and Chrysanthemum officinale, totally 24 kinds of Chinese herbal medicines.
Finally, through the 5-degree graduation method, 2 species with a bitterness higher than 3.5 (moderate bitterness) and 7 species with a bitterness higher than 5 degrees (highly bitter, extremely bitter, accompanied by nausea) were screened out, a total of 9 species (Angelica pubescens, Lotus Seed Heart, Toosendan, Andrographis paniculata, Sophora flavescens, Coptis chinensis, Gentiana scabra, Forsythia suspensa, Sophora japonica) are selected as bitterness representatives to participate in the bitterness masking experiment. (Note: The bitterness of Coptis chinensis slices can reach 5.2 after 20 minutes of water decoction. The reference standard solution is 90-degree water brewing Coptis chinensis powder, it is automatically cooled to obtain a solution with a bitter taste of 4.0. Because Coptis chinensis has been used as a standard bitter liquid, it is no longer used).
The experimental method is the same as the previous part.

[3] = concentration 0.001% in 60% ethanol
[4] = concentration 0.005% in 60% ethanol
[5] = concentration 0.02% in 60% ethanol
[6] = concentration 0.10% in 60% ethanol
[7] = concentration 0.50% in 60% ethanol

For `CCOC(=O)CNC(=O)[C@@H]1C[C@H](C)CC[C@H]1C(C)C` [Cooling agent WS-5, [((IR, 2S, 5R)-2-isopropyl-5-methyl-cyclohexanecarbonyl)-amino]-ethyl acetate], the Reduction of bitterness [1] was 2.3, the Reduction range [1] was 57.50% and the “Duration >” value [1] was > 100 s. The “bitterness value after drug” value [1, 3] was 2.6, the “bitterness value after drug” value [1, 4] was 1.8 and the “bitterness value after drug” value [1, 5] was 1.7. For the same molecule, the “bitterness value after drug” value [1, 6] was 1.7 and the “bitterness value after drug” value [1, 7] was 1.8.

In the case of `CNC(=O)C(C)(C(C)C)C(C)C` [Cooling agent WS-23, N,2,3-trimethyl-2-isopropylbutyramide], the “Duration >” value [1] is reported as > 30 s, the inhibition in vivo at 0.2 % [1] is reported as 50% and the “bitterness value after drug” value [1, 3] is reported as 2.5. The “bitterness value after drug” value [1, 4] was 2.4, the “bitterness value after drug” value [1, 5] was 2.1 and the “bitterness value after drug” value [1, 6] was 2. For the same molecule, the “bitterness value after drug” value [1, 7] was 2.1.

For `CCCCCC1=C(C)CCC1=O` [Dihydrojasmone], the Reduction of bitterness [1] was 0 and the Reduction range [1] was 0.00%.

`COC(=O)[C@@H]1CC2=CC(=O)CC[C@]2(C)[C@@]23O[C@@H]2C[C@@]2(C)[C@@H](CC[C@@]24CCC(=O)O4)[C@H]13` [Eplerenone, reference compound] showed an inhibition in vivo at 0.2 % [1] of 0%.

In the case of `COc1cc(C=O)cc(O)c1O` [Hydroxyvanillin], the Reduction of bitterness [1] is reported as 0 and the Reduction range [1] is reported as 0.00%.

For `O=S(=O)([O-])[O-].[Mg+2]` [Magnesium sulfate], the Reduction of bitterness [1] was 1.5, the Reduction range [1] was 37.50% and the “Duration >” value [1] was > 20 s. The “bitterness value after drug” value [1, 3] was 3.5, the “bitterness value after drug” value [1, 4] was 3.2 and the “bitterness value after drug” value [1, 5] was 2.8. For the same molecule, the “bitterness value after drug” value [1, 6] was 2.5 and the “bitterness value after drug” value [1, 7] was 2.3.

With `CCNC(=O)[C@@H]1C[C@H](C)CC[C@H]1C(C)C` [Menthamide, N-ethyl-L-menthyl carboxamide] the Reduction of bitterness [1] was 2.5, the Reduction range [1] was 62.50% and the “Duration >” value [1] was > 120 s. The “bitterness value after drug” value [1, 3] was 2.4, the “bitterness value after drug” value [1, 4] was 1.8 and the “bitterness value after drug” value [1, 5] was 1.5. The “bitterness value after drug” value [1, 6] was 1.5, the “bitterness value after drug” value [1, 7] was 1.6 and the Bitterness reduction value ([2]; Andrographis paniculata, original bitterness 5) was 0.5. The Bitterness reduction value ([2]; Forsythia suspensa, original bitterness 3) was 1.7, the Bitterness reduction value ([2]; Gentiana, original bitterness 5) was 1 and the Bitterness reduction value ([2]; Lotus seed heart, original bitterness 5) was 2.8. It also gave a Bitterness reduction value ([2]; Puhuo, original bitterness 5) of 2.1, a Bitterness reduction value ([2]; Sophora flavescens, original bitterness 5) of 1 and a Bitterness reduction value ([2]; Toulianzi, original bitterness 5) of 1.

`COC(=O)C1=C(C)NC(C)=C(C(=O)OC)C1c1ccccc1[N+](=O)[O-]` [Nifedipine, reference compound] gave an inhibition in vivo at 0.2 % [1] of 0%.

`O=C(CCc1ccc(O)cc1)c1c(O)cc(O)cc1O` [Phloretin] gave an inhibition in vivo at 0.2 % [1] of 0%.

For `O=C(/C=C/C=C/c1ccc2c(c1)OCO2)N1CCCCC1` [Piperine, (E,E)-1-[5-(1,3-benzodioxol-5-yl)-1-oxo-2,4-pentadieny1]-piperidine], the “Duration >” value [1] was > 30 s, the inhibition in vivo at 0.2 % [1] was 52.5% and the “bitterness value after drug” value [1, 3] was 3.9. The “bitterness value after drug” value [1, 4] was 2.5, the “bitterness value after drug” value [1, 5] was 2.3 and the “bitterness value after drug” value [1, 6] was 1.9. The “bitterness value after drug” value [1, 7] was 1.9.

For `CCCN(CCC)S(=O)(=O)c1ccc(C(=O)O)cc1` [Probenecid, reference compound], the “Duration >” value [1] was > 30 s and the inhibition in vivo at 0.2 % [1] was 12.5%.

With `O=c1c(O)c(-c2ccc(O)c(O)c2)oc2cc(O)cc(O)c12` [Quinolide] the inhibition in vivo at 0.2 % [1] was 0%.

With `CC1CC(O)CC(C)(C)C1` (stereo not shown) [Trimethylcyclohexanol] the Reduction of bitterness [1] was 0 and the Reduction range [1] was 0.00%.

Dodecalactone gave a Reduction of bitterness [1] of 0 and a Reduction range [1] of 0.00%.

In the case of trans-caryophyllene, the Reduction of bitterness [1] is reported as 2.3, the Reduction range [1] is reported as 57.50% and the “Duration >” value [1] is reported as > 30 s. For the same molecule, the “bitterness value after drug” value [1, 3] was 3.8, the “bitterness value after drug” value [1, 4] was 2.6 and the “bitterness value after drug” value [1, 5] was 1.9. For the same molecule, the “bitterness value after drug” value [1, 6] was 1.7 and the “bitterness value after drug” value [1, 7] was 1.8.
